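Where inhibition never reached the appropriate level, the endpoint shown equals the highest concentration tested. Otherwise, values were interpolated linearly from a five-concentration, 48-hour dose response in 96-well plates. At the TGI there is no net growth.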
Columns and labels:
Assay in all cases: NCI-60 cell line screen, 48 h
[1] = tested on: K-562 leukemia
[2] = tested on: LOX IMVI melanoma
[3] = tested on: SK-MEL-28 melanoma
[4] = tested on: LXFL 529 NSCLC
[5] = tested on: MALME-3M melanoma
[6] = tested on: HOP-62 NSCLC
[7] = tested on: HCC-2998 colon
[8] = tested on: SN12C renal
[9] = tested on: MOLT-4 leukemia
[10] = tested on: SF-295 CNS
[11] = tested on: EKVX NSCLC
[12] = tested on: UACC-257 melanoma
[13] = tested on: NCI-H460 lung
[14] = tested on: M19-MEL melanoma
[15] = tested on: COLO 205 colon
[16] = tested on: OVCAR-5 ovarian
[17] = tested on: HCT-15 colon
[18] = tested on: HOP-92 NSCLC
[19] = tested on: SR leukemia
[20] = tested on: SW-620 colon
[21] = tested on: OVCAR-8 ovarian
[22] = tested on: OVCAR-4 ovarian
[23] = tested on: SK-MEL-5 melanoma
[24] = tested on: UACC-62 melanoma
[25] = tested on: NCI-H522 lung
[26] = tested on: TK-10 renal
[27] = tested on: SNB-78 CNS
[28] = tested on: UO-31 renal
[29] = tested on: DMS 273 small cell lung
[30] = tested on: SNB-75 CNS
[31] = tested on: HCT-116 colon
[32] = tested on: HT29 colon
[33] = tested on: HOP-18 NSCLC
[34] = tested on: CCRF-CEM leukemia
[35] = tested on: DLD-1 colon
[36] = tested on: M14 melanoma
[37] = tested on: KM20L2 colon
[38] = tested on: OVCAR-3 ovarian
[39] = tested on: RPMI-8226 leukemia
[40] = tested on: IGROV1 ovarian
[41] = tested on: ACHN renal
[42] = tested on: 786-0 renal
[43] = tested on: RXF 393 renal
[44] = tested on: SF-268 CNS
[45] = tested on: SF-539 CNS
[46] = tested on: DMS 114 small cell lung
[47] = tested on: CAKI-1 renal
[48] = tested on: A549 NSCLC
[49] = tested on: NCI-H23 lung
[50] = tested on: SK-MEL-2 melanoma
[51] = tested on: HL-60(TB) leukemia
[52] = tested on: SK-OV-3 ovarian
[53] = tested on: KM12 colon
[54] = tested on: NCI-H226 lung
[55] = tested on: U251 CNS
[56] = tested on: SNB-19 CNS
[57] = tested on: A498 renal
[58] = tested on: XF 498 CNS

With `CN(C)CC1CCC(CN(C)C)C1=NO` (stereo not drawn) the TGI [1] was greater than 100 µM, the TGI [2] was greater than 100 µM and the TGI [3] was greater than 100 µM. For the same molecule, the TGI [4] was greater than 100 µM, the TGI [5] was greater than 100 µM and the TGI [6] was greater than 100 µM. The TGI [7] was greater than 100 µM, the TGI [8] was greater than 100 µM and the TGI [9] was greater than 100 µM. It also gave a TGI [10] greater than 10 µM, a TGI [11] greater than 100 µM and a TGI [12] greater than 100 µM. The TGI [13] was greater than 10 µM, the TGI [14] was greater than 100 µM and the TGI [15] was greater than 100 µM. It also gave a TGI [16] greater than 100 µM, a TGI [17] greater than 100 µM and a TGI [18] greater than 100 µM. It also gave a TGI [19] greater than 100 µM, a TGI [20] greater than 100 µM and a TGI [21] greater than 100 µM. For the same molecule, the TGI [22] was greater than 100 µM, the TGI [23] was greater than 100 µM and the TGI [24] was greater than 100 µM. It also gave a TGI [25] greater than 100 µM, a TGI [26] greater than 100 µM and a TGI [27] greater than 100 µM. It also gave a TGI [28] greater than 100 µM, a TGI [29] greater than 100 µM and a TGI [30] greater than 10 µM. For the same molecule, the TGI [31] was greater than 100 µM, the TGI [32] was greater than 100 µM and the TGI [33] was greater than 100 µM. The TGI [34] was greater than 100 µM, the TGI [35] was greater than 100 µM and the TGI [36] was greater than 100 µM. It also gave a TGI [37] greater than 100 µM, a TGI [38] greater than 100 µM and a TGI [39] greater than 100 µM. For the same molecule, the TGI [40] was greater than 100 µM, the TGI [41] was greater than 100 µM and the TGI [42] was greater than 100 µM. It also gave a TGI [43] greater than 100 µM, a TGI [44] greater than 100 µM and a TGI [45] greater than 100 µM. It also gave a TGI [46] greater than 100 µM, a TGI [47] greater than 100 µM and a TGI [48] greater than 100 µM.
Work on `C=C(/C=C/C=C(/CCC=C(C)C)COC(C)=O)[C@@H]1CC[C@]2([C@H](CCCO)/C(=C(/C)C=O)CC[C@]2(C)O)[C@@H]1O` yielded a TGI [49] of 35.5 µM, a TGI [1] of 30.2 µM and a TGI [2] of 27.4 µM. It also gave a TGI [3] of 26.9 µM, a TGI [5] of 15.7 µM and a TGI [7] of 20.3 µM. It also gave a TGI [8] of 29.9 µM, a TGI [9] of 34.9 µM and a TGI [10] of 19.6 µM. It also gave a TGI [11] of 42.2 µM, a TGI [12] of 32.6 µM and a TGI [13] of 24.3 µM. The TGI [14] was 33.3 µM, the TGI [15] was 7.06 µM and the TGI [16] was 53.7 µM. The TGI [17] was 30.4 µM, the TGI [50] was 33 µM and the TGI [20] was 22 µM. The TGI [51] was 11.1 µM, the TGI [21] was 52.3 µM and the TGI [25] was 32.6 µM. The TGI [26] was 31.3 µM, the TGI [52] was 54.5 µM and the TGI [28] was 25.6 µM. For the same molecule, the TGI [29] was 21.1 µM, the TGI [31] was 45.6 µM and the TGI [32] was 28.4 µM. For the same molecule, the TGI [53] was 32.4 µM, the TGI [33] was 23.7 µM and the TGI [34] was 4.97 µM. It also gave a TGI [35] of 30.4 µM, a TGI [36] of 23.5 µM and a TGI [37] of 27.9 µM. For the same molecule, the TGI [54] was 19.6 µM, the TGI [40] was 36.2 µM and the TGI [41] was 27.6 µM. For the same molecule, the TGI [55] was 30.7 µM, the TGI [56] was 29.7 µM and the TGI [43] was 33.1 µM. The TGI [44] was 41.9 µM, the TGI [45] was 28.5 µM and the TGI [46] was 28.8 µM. The TGI [47] was 17.5 µM and the TGI [48] was 26.2 µM.
For `Nc1nc(SCCC/C=C/B(O)O)nc2c1ncn2C1OC(CO)C(O)C1O` (stereo not drawn), the TGI [49] was greater than 243 µM, the TGI [1] was greater than 243 µM and the TGI [2] was greater than 243 µM. For the same molecule, the TGI [3] was greater than 243 µM, the TGI [4] was greater than 243 µM and the TGI [5] was greater than 243 µM. The TGI [6] was greater than 243 µM, the TGI [7] was greater than 243 µM and the TGI [8] was greater than 243 µM. The TGI [9] was greater than 243 µM, the TGI [10] was greater than 243 µM and the TGI [11] was greater than 243 µM. For the same molecule, the TGI [12] was greater than 243 µM, the TGI [57] was greater than 243 µM and the TGI [13] was greater than 243 µM. The TGI [14] was greater than 243 µM, the TGI [15] was greater than 243 µM and the TGI [16] was greater than 243 µM. The TGI [17] was greater than 243 µM, the TGI [18] was greater than 243 µM and the TGI [50] was greater than 243 µM. The TGI [19] was greater than 243 µM, the TGI [20] was greater than 243 µM and the TGI [51] was greater than 243 µM. For the same molecule, the TGI [21] was greater than 243 µM, the TGI [58] was greater than 243 µM and the TGI [22] was greater than 243 µM. For the same molecule, the TGI [23] was greater than 243 µM, the TGI [24] was greater than 243 µM and the TGI [25] was greater than 243 µM. It also gave a TGI [26] greater than 243 µM, a TGI [27] greater than 243 µM and a TGI [52] greater than 243 µM. It also gave a TGI [29] greater than 243 µM, a TGI [30] greater than 243 µM and a TGI [31] greater than 243 µM. It also gave a TGI [32] greater than 243 µM, a TGI [53] greater than 243 µM and a TGI [34] greater than 243 µM. For the same molecule, the TGI [35] was greater than 243 µM, the TGI [36] was greater than 243 µM and the TGI [37] was greater than 243 µM. The TGI [38] was greater than 243 µM, the TGI [54] was greater than 243 µM and the TGI [40] was greater than 243 µM. The TGI [41] was greater than 243 µM, the TGI [55] was greater than 243 µM and the TGI [56] was greater than 243 µM. For the same molecule, the TGI [43] was greater than 243 µM, the TGI [44] was greater than 243 µM and the TGI [45] was greater than 243 µM. It also gave a TGI [48] greater than 243 µM.
For `C/C(=N\O)C(CN(C)C)C(c1ccccc1)c1c(O)c2ccccc2oc1=O` (stereo not drawn), the TGI [49] was greater than 100 µM, the TGI [1] was greater than 100 µM and the TGI [2] was greater than 100 µM. It also gave a TGI [3] greater than 100 µM, a TGI [4] greater than 100 µM and a TGI [5] greater than 100 µM. It also gave a TGI [6] greater than 100 µM, a TGI [7] greater than 100 µM and a TGI [8] greater than 100 µM. The TGI [9] was greater than 100 µM, the TGI [10] was greater than 100 µM and the TGI [11] was greater than 100 µM. The TGI [12] was greater than 100 µM, the TGI [57] was greater than 100 µM and the TGI [14] was greater than 100 µM. The TGI [15] was greater than 100 µM, the TGI [16] was greater than 100 µM and the TGI [17] was greater than 100 µM. It also gave a TGI [18] greater than 100 µM, a TGI [50] greater than 100 µM and a TGI [19] greater than 100 µM. For the same molecule, the TGI [20] was greater than 100 µM, the TGI [51] was greater than 100 µM and the TGI [21] was greater than 100 µM. For the same molecule, the TGI [58] was greater than 100 µM, the TGI [22] was greater than 100 µM and the TGI [23] was greater than 100 µM. For the same molecule, the TGI [24] was greater than 100 µM, the TGI [25] was greater than 100 µM and the TGI [26] was greater than 100 µM. The TGI [27] was greater than 100 µM, the TGI [52] was greater than 100 µM and the TGI [28] was greater than 100 µM. For the same molecule, the TGI [29] was greater than 100 µM, the TGI [30] was greater than 100 µM and the TGI [31] was greater than 100 µM. It also gave a TGI [32] greater than 100 µM, a TGI [53] greater than 100 µM and a TGI [34] greater than 100 µM. For the same molecule, the TGI [35] was greater than 100 µM, the TGI [36] was greater than 100 µM and the TGI [37] was greater than 100 µM. For the same molecule, the TGI [54] was greater than 100 µM, the TGI [39] was greater than 100 µM and the TGI [40] was greater than 100 µM. It also gave a TGI [55] greater than 100 µM, a TGI [42] greater than 100 µM and a TGI [56] greater than 100 µM. The TGI [43] was greater than 100 µM, the TGI [44] was greater than 100 µM and the TGI [45] was greater than 100 µM. The TGI [46] was greater than 100 µM, the TGI [47] was greater than 100 µM and the TGI [48] was greater than 100 µM.
